Experimental findings from US9102617B2, “Antimicrobial agents” (Rutgers, The State University of New Jersey, priority 2010, dated 2015) are described below.

Converted amounts (≈) assume the structure as drawn. Where only a bound is given, the exact number is not on record here.

A word on the MIC: it is the least concentration at which growth counts as inhibited.

In the first test the test system is methicillin-sensitive Staphylococcus aureus (MSSA). Kind of test: Planktonic antibacterial broth microdilution assay (Test C), MIC vs MSSA. Format: cell-based. To be noted: 37° C., growth read after 24 to 48 hours at OD 600 nm. The procedure: (§1) Test C. Planktonic (Free-Living) Antibacterial Assay.
(§2) Planktonic antibacterial activity can be determined using a broth microdilution assay in which log-phase bacteria are grown at 37° C. in appropriate medium containing two-fold serial dilutions of a compound to yield a final concentration ranging from 256 to 0.1 μg/ml. For determination of minimal inhibitory concentration (MIC) values, bacterial growth is monitored after 24 to 48 hours by measuring optical density at 600 nm. […] The minimal inhibitory concentration against methicillin-sensitive Staphylococcus aureus (MSSA) for each of the following representative compounds of the invention was determined to be less than 32 μg/ml.
(In general: Broth dilution looks for growth in wells or tubes with falling amounts of substance.)
`C[n+]1cccc2ccccc21.[I-]` [Comparative Example A, reference compound]: the MIC is greater than 64 µg/mL. The molecule `C[n+]1c(-c2ccccc2)ccc2ccccc21.[I-]` [Comparative Example B, reference compound] yielded an MIC greater than 64 µg/mL.

The molecule `COc1cc(-c2cc3ccccc3[n+](C)c2)cc(-c2ccc(-c3ccccc3)cc2)c1OC.[I-]` [Example 2] registered an MIC of no more than 8 µg/mL. In turn, `COc1cc(-c2cc3ccccc3[n+](C)c2)cc(-c2ccc(F)cc2)c1OC.[I-]` [Example 4] showed an MIC of 16 µg/mL. The molecule `COc1cc(-c2cc3ccccc3[n+](C)c2)cc(-c2cccc(-c3ccc(F)cc3)c2)c1OC.[I-]` [Example 6] returned an MIC of no more than 8 µg/mL. The same measure, in the same setting: for `COc1cc(-c2cc3ccccc3[n+](C)c2)cc(-c2cc(-c3ccc(F)cc3)cc(-c3ccc(F)cc3)c2)c1OC.[I-]` [Example 8] the value was no more than 8 µg/mL; for `COc1cc(-c2cc3ccccc3[n+](C)c2)cc(-c2ccc(C(C)(C)C)cc2)c1OC.[I-]` [Example 11], no more than 8 µg/mL; for `COc1cc2cc(-c3cc(OC)c(OC)c(-c4ccc(-c5ccccc5)cc4)c3)c[n+](C)c2cc1OC.[I-]` [Example 13], no more than 8 µg/mL. Same read-out and setting: for `CCC[n+]1cc(-c2cc(OC)c(OC)c(-c3ccc(-c4ccccc4)cc3)c2)cc2cc(OC)c(OC)cc21.[I-]` [Example 14] the value was no more than 8 µg/mL. The same measure, in the same setting: for `COc1cc2cc(-c3cc(OC)c(OC)c(-c4ccc(C(C)(C)C)cc4)c3)c[n+](C)c2cc1OC.[I-]` [Example 16] the value was no more than 8 µg/mL; for `COc1cc2cc(-c3cc(OC)c(OC)c(-c4ccc(C5CCCCC5)cc4)c3)c[n+](C)c2cc1OC.[I-]` [Example 21], no more than 8 µg/mL. As for `CCC[n+]1cc(-c2cc(OC)c(OC)c(-c3ccc(C4CCCCC4)cc3)c2)cc2cc(OC)c(OC)cc21.[I-]` [Example 22], the MIC was no more than 8 µg/mL. The molecule `COc1cc(-c2cc3cc4c(cc3[n+](C(C)C)c2)OCO4)cc(-c2ccc(-c3ccccc3)cc2)c1OC.[I-]` [Example 25] had an MIC of no more than 8 µg/mL. Still for that read-out and setting: for `COc1cc(-c2cc3cc4c(cc3[n+](C)c2)OCO4)cc(-c2ccc(C(C)(C)C)cc2)c1OC.[I-]` [Example 26a] the value was no more than 8 µg/mL; for `COc1cc(-c2cc3ccc(OC)c(OC)c3[n+](C)c2)cc(-c2cccc(C(C)(C)C)c2)c1OC.[I-]` [Example 28], no more than 8 µg/mL; for `COc1cc(-c2cc3ccc(OC)c(OC)c3[n+](C)c2)cc(-c2ccc(C(C)(C)C)cc2)c1OC.[I-]` [Example 30], no more than 8 µg/mL. In the case of `COc1cc(-c2cc3ccccc3nc2CN)cc(-c2ccc(C(C)(C)C)cc2)c1OC` [Example 31], the MIC is no more than 8 µg/mL. Same read-out and setting: for `C[n+]1cc(-c2cc(F)c(F)c(-c3ccc(-c4ccccc4)cc3)c2)cc2ccccc21.[I-]` [Example 33] the value was no more than 8 µg/mL. On to `CC(C)(C)c1ccc(-c2ccc(CCN)c3ccccc23)cc1` [Example 38, 2-(4-(4-(t-butyl)phenyl)naphthalen-1-yl)ethanamine], for which the MIC was no more than 8 µg/mL.

`CC(C)(C)c1ccc(-c2ccc(CCN=C(N)N)c3ccccc23)cc1` [Example 39] had an MIC of no more than 8 µg/mL.

In the case of `CC(C)(C)c1ccc(-c2ccc(CN=C(N)N)c3ccccc23)cc1` [Example 40], the MIC was no more than 8 µg/mL.

As for `COc1cc(C(F)(F)F)ccc1-c1cccc2c(CN=C(N)N)cccc12` [Example 43], the MIC was no more than 8 µg/mL.

For `COc1cc(C(F)(F)F)ccc1-c1cccc2c(CCN)cccc12` [Example 44, 2-(5-(2-Methoxy-4-(trifluoromethyl)phenyl)naphthalen-1-yl)ethanamine], the MIC is no more than 8 µg/mL. The same measure, in the same setting: the value for `COc1cc(C(F)(F)F)ccc1-c1cccc2c(CCN=C(N)N)cccc12` [Example 45] was no more than 8 µg/mL. Take `NC(N)=NCc1cccc2c(-c3ccc(C4CC4)cc3)cccc12` [Example 46]: the MIC was no more than 8 µg/mL. Molecule `Cc1cc(C(F)(F)F)ccc1-c1cccc2c(CN=C(N)N)cccc12` [Example 47] yielded an MIC of no more than 8 µg/mL.

`COc1cc2c(-c3ccc(-c4ccccc4)cc3)ccc([N+](C)(C)C)c2cc1OC.[I-]` [Example 50] gave an MIC of no more than 8 µg/mL.

For the molecule `N=C(N)NCc1cccc2c(-c3ccc(Br)cc3)cccc12` [Example 51, 1-((5-(4-bromophenyl)naphthalen-1-yl)methyl)guanidine], the MIC is no more than 8 µg/mL. Same read-out and setting: the value for `N=C(N)NCc1cccc2c(-c3ccc(Cl)cc3)cccc12` [Example 52] was no more than 8 µg/mL; that for `N=C(N)NCc1cccc2c(-c3ccc(C(F)(F)F)cc3)cccc12` [Example 53] was no more than 8 µg/mL; that for `N=C(N)NCCc1cccc2c(-c3ccc(C(F)(F)F)cc3)cccc12` [Example 55] was no more than 8 µg/mL.

Turning to `COc1ccc(-c2ccc3c(-c4ccc(C(C)(C)C)cc4)cccc3c2CNC(=N)N)c(OC)c1OC` [Example 58], the MIC was no more than 8 µg/mL. On the same count and under the same terms, the value for `CN(C)Cc1ccccc1-c1ccc2c(-c3ccc(C(C)(C)C)cc3)cccc2c1` [Example 60, (2-(1-(4-t-butylphenyl)naphthalen-6-yl)phenyl)-N,N-dimethylmethanamine] was 32 µg/mL (≈ 81.3 µM); that for `CC(C)(C)c1ccc(-c2cccc3cc(-c4cccc([N+](C)(C)C)c4)ccc23)cc1.[I-]` [Example 65] was no more than 8 µg/mL; that for `C[N+](C)(C)c1cccc(-c2ccc3c(-c4cccc(-c5ccccc5)c4)cccc3c2)c1.[I-]` [Example 67] was no more than 8 µg/mL. `C[N+](C)(C)c1ccc(-c2ccc3c(-c4cccc(-c5ccccc5)c4)cccc3c2)cc1.[I-]` [Example 69] gave an MIC of no more than 8 µg/mL.

The molecule `CN(C)Cc1cccc(-c2ccc3c(-c4cccc(-c5ccccc5)c4)cccc3c2)c1` [Example 71] gave an MIC of no more than 8 µg/mL.

As to `C[N+](C)(C)Cc1cccc(-c2ccc3c(-c4cccc(-c5ccccc5)c4)cccc3c2)c1.[I-]` [Example 72], the MIC is no more than 8 µg/mL. The molecule `C[N+](C)(C)c1cccc(-c2ccc3c(-c4ccc(F)cc4)cccc3c2)c1.[I-]` [Example 74] had an MIC of no more than 8 µg/mL.

In turn, `C[N+](C)(C)c1ccc(-c2ccc3c(-c4ccc(F)cc4)cccc3c2)cc1.[I-]` [Example 76] returned an MIC of no more than 8 µg/mL. On the same count and under the same terms, the value for `CC(C)(C)c1ccc(-c2cccc(-c3cccc4cc(-c5cccc([N+](C)(C)C)c5)ccc34)c2)cc1.[I-]` [Example 78] was no more than 8 µg/mL; that for `C[N+](C)(C)c1cccc(-c2ccc3c(-c4cccc(-c5ccc(C(F)(F)F)cc5)c4)cccc3c2)c1.[I-]` [Example 80] was no more than 8 µg/mL. Same read-out and setting: for `C[N+](C)(C)c1cccc(-c2ccc3c(-c4cc(-c5ccc(F)cc5)cc(-c5ccc(F)cc5)c4)cccc3c2)c1.[I-]` [Example 82] the value was no more than 8 µg/mL; for `COC(=O)c1ccc(-c2ccc3c(-c4ccc(C(C)(C)C)cc4)cccc3c2)c(C[N+](C)(C)C)c1.[I-]` [Example 84], no more than 8 µg/mL. Consider `CN(C)Cc1cc(C(=O)O)ccc1-c1ccc2c(-c3ccc(C(C)(C)C)cc3)cccc2c1.Cl` [Example 85], for which the MIC is no more than 8 µg/mL.

As to `CNCc1cc(C(=O)OC)ccc1-c1ccc2c(-c3ccc(C(C)(C)C)cc3)cccc2c1` [Example 86, methyl 4-(1-(4-t-butylphenyl)naphthalen-6-yl)-3-((methylamino)methyl)benzoate], the MIC was no more than 8 µg/mL. Consider `CNCc1cc(C(=O)O)ccc1-c1ccc2c(-c3ccc(C(C)(C)C)cc3)cccc2c1.Cl` [Example 87], for which the MIC is no more than 8 µg/mL. On to `CC(C)(C)c1ccc(-c2cccc3cc(-c4ccc(C(=O)O)cc4CN)ccc23)cc1.Cl` [Example 88], for which the MIC is greater than 64 µg/mL. As for `COC(=O)c1ccc(-c2ccc3c(-c4ccc(C(C)(C)C)cc4)cccc3c2)c(CN)c1` [Example 89, methyl 4-(1-(4-t-butylphenyl)naphthalen-6-yl)-3-(aminomethyl)benzoate], the MIC is no more than 8 µg/mL. For `C[N+](C)(C)c1cccc(-c2ccc3c(-c4ccc(-c5ccccc5)cc4)cccc3c2)c1.[I-]` [Example 93], the MIC is no more than 8 µg/mL.

As for `C[N+](C)(C)c1ccc(-c2ccc3c(-c4ccc(-c5ccccc5)cc4)cccc3c2)cc1.[I-]` [Example 95], the MIC was no more than 8 µg/mL. The same measure, in the same setting: the value for `C[N+](C)(C)c1cccc(-c2ccc3c(-c4ccc(C(F)(F)F)cc4)cccc3c2)c1.[I-]` [Example 97] was no more than 8 µg/mL. Still for that read-out and setting: for `CC(C)(C)c1ccc(-c2cccc3cc(-c4ccc([N+](C)(C)C)cc4)ccc23)cc1.[I-]` [Example 100] the value was no more than 8 µg/mL; for `COC(=O)c1ccc(-c2ccc3c(-c4ccc(C(C)(C)C)cc4)cccc3c2)c(CNC(=N)N)c1` [Example 101], no more than 8 µg/mL; for `COc1ccc(CNC(=N)N)c(-c2ccc3c(-c4ccc(C(C)(C)C)cc4)cccc3c2)c1OC` [Example 102], no more than 8 µg/mL. For `COc1cc(CC(=N)N)c(-c2ccc3c(-c4ccc(C(C)(C)C)cc4)cccc3c2)cc1OC` [Example 103], the MIC is no more than 8 µg/mL. On the same count and under the same terms, for `N=C(N)NCc1ccccc1-c1ccc2c(-c3cccc(-c4ccccc4)c3)cccc2c1` [Example 105] the value was no more than 8 µg/mL; for `COc1c(CCN)ccc(-c2ccc3c(-c4ccc(C(C)(C)C)cc4)cccc3c2)c1OC.Cl` [Example 106], no more than 8 µg/mL; for `C[n+]1cc(-c2ccc(-c3ccccc3)cc2)c2ccccc2c1.[I-]` [Example 107], no more than 8 µg/mL. The molecule `C[n+]1cccc2cccc(-c3ccc(-c4ccccc4)cc3)c21.[I-]` [Example 118] had an MIC of 16 µg/mL. Still for that read-out and setting: the value for `C[n+]1cccc2c(-c3ccc(-c4ccccc4)cc3)cccc21.[I-]` [Example 122] was no more than 8 µg/mL.

The next test concerns methicillin-resistant Staphylococcus aureus (MRSA). Kind of test: Planktonic antibacterial broth microdilution assay (Test C), MIC vs MRSA. Format: cell-based. To be noted: broth microdilution, 37° C., growth read after 24 to 48 hours at OD 600 nm, read-out: MIC vs MRSA. As to the method: as §1, §2
Representative compounds of the invention were also tested against methicillin-resistant Staphylococcus aureus, vancomycin-resistant Enterococcus faecalis and Enterococcus faecium (VRE), vancomycin-sensitive Enterococcus faecalis and Enterococcus faecium (VSE).
Turning to `COc1cc(-c2cc3ccccc3[n+](C)c2)cc(-c2ccc(C(C)(C)C)cc2)c1OC.[I-]` [Example 11], the MIC is no more than 8 µg/mL.
